The target of the test is human P2X3 receptor (Homo sapiens (Human), UniProt P56373). Nature of the test: P2X3 receptor inhibition, ATP-evoked Fluo-3 calcium fluorescence (FDSS 3000). Format: cell-based. To be noted: C6BU-1 cell transfected with human P2X3 receptor gene; ATP-evoked Fluo-3 fluorescence. A digest of the protocol:
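C6BU-1 cells stably transfected with human P2X3, loaded with 4 μM Fluo-3-AM for 1 h at 37 °C in HEPES buffer pH 7.5 with probenecid. Compound added 5 min before 40 nM ATP solution; fluorescence followed 3 min. IC50 from ratio of peak post-ATP to baseline fluorescence.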

Molecules are shown by their SMILES.

human P2X3 receptor, sequence (P56373 whole entry): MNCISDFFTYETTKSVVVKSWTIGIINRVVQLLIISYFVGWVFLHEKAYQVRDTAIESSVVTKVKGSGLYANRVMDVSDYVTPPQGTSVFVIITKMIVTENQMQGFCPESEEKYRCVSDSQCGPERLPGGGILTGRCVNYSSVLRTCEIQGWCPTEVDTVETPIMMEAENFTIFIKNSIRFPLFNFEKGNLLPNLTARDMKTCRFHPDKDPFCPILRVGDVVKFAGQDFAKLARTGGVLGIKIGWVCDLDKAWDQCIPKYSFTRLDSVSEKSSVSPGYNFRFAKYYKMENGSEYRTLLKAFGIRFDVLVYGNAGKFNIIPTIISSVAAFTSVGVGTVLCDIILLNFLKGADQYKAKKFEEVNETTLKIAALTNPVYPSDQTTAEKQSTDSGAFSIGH

On to `COCCOc1ccccc1C1C(C(=O)CC(C)C)=C(O)C(=O)N1c1ccc(-c2noc(C)n2)cc1` (stereo not shown) [Compound I-276], for which the half-inhibitory concentration (IC50) is 117 nM.

For `CC(C)c1n[nH]c2c1C(c1ccccc1NC(N)=O)N(c1ccc(-c3ccsc3)cc1)C2=O` (stereo not shown) [II-087], the IC50 was 9 nM.

Regarding `COCc1ncccc1C1C(C(=O)CC(C)C)=C(O)C(=O)N1c1ccc(-c2ccsc2)cc1` (stereo not shown) [Compound I-324], the half-maximal inhibitory concentration (IC50) was 109 nM.

In the case of `CC(C)(C)C(=O)C1=C(O)C(=O)N(c2ccc(-c3ccon3)cc2)C1c1ccccc1OC(F)F` (stereo not shown) [Compound I-064], the IC50 turned out to be 137 nM.

As to `COc1ccccc1C1C(C(=O)CC(C)C)=C(O)C(=O)N1c1ccc(-c2ccc(C)o2)cc1` (stereo not shown) [Compound I-383], the IC50 stood at 36 nM.

For `COCc1ccccc1C1C(C(=O)CC(C)C)=C(O)C(=O)N1c1ccc(-c2csc(C)c2)cc1` (stereo not shown) [Compound I-376], the IC50 amounted to 25 nM.

Regarding `COCCOc1ccccc1C1C(C(=O)C(C)(C)C)=C(O)C(=O)N1c1ccc(-c2nc(C)no2)cc1` (stereo not shown) [Compound I-128], the IC50 was determined as 155 nM.

Take `CC(C)c1n[nH]c2c1C(c1ccccc1CC(=O)O)N(c1ccc(-c3ccsc3)cc1)C2=O` (stereo not shown) [II-094]: the IC50 came out at 65 nM.

For `COCCc1ccccc1C1C(C(=O)C(C)C)=C(O)C(=O)N1c1ccc(-c2ccsc2)cc1` (stereo not shown) [Compound I-247], the IC50 is 15 nM.

With `COCCOc1ncccc1C1C(C(=O)C2CCCC2)=C(O)C(=O)N1c1ccc(-c2ccon2)cc1` (stereo not shown) [Compound I-521], the IC50 stood at 554 nM.

Turning to `CC(C)CC(=O)C1=C(O)C(=O)N(c2ccc(-c3ccsc3)cc2)C1c1ccccc1OCCO` (stereo not shown) [Compound I-250], the IC50 amounted to 29 nM.

In the case of `COc1ccccc1C1C(C(=O)C(C)(C)C)=C(O)C(=O)N1c1ccc(-c2ccoc2)nc1` (stereo not shown) [Compound I-093], the IC50 stood at 756 nM.

Consider `COCc1ccccc1C1C(C(=O)CC(C)C)=C(O)C(=O)N1c1ccc(-c2ccco2)cc1` (stereo not shown) [Compound I-355], for which the IC50 stood at 44 nM.

As to `COc1ccccc1C1C(C(=O)c2cccnc2)=C(O)C(=O)N1c1ccc(-c2ccsc2)cc1` (stereo not shown) [Compound I-460], the concentration for half-maximal inhibition (IC50) is 103 nM.

As to `CC(C)C(=O)C1=C(O)C(=O)N(c2ccc(-c3ccsc3)cc2)C1c1ccccn1` (stereo not shown) [Compound I-219], the IC50 is 324 nM.

In the case of `Cc1nc(-c2ccc(N3C(=O)C(O)=C(C(=O)C(C)C)C3c3ccccc3OC(F)(F)F)cc2)no1` (stereo not shown) [Compound I-314], the IC50 was found to be 329 nM.

In the case of `CC(C)(C)c1n[nH]c2c1C(c1ccccc1OCC(=O)O)N(c1ccc(-c3ccsc3)cc1)C2=O` (stereo not shown) [II-023], the IC50 came to 4 nM.

For `COc1ccccc1C1C(C(=O)C(C)C)=C(O)C(=O)N1c1ccc(-c2csnn2)cc1` (stereo not shown) [Compound I-531], the IC50 stood at 286 nM.

As to `CC(C)C(=O)C1=C(O)C(=O)N(c2ccc(-c3ccsc3)cc2)C1c1ccccc1OC(F)(F)F` (stereo not shown) [Compound I-302], the IC50 was 34 nM.

With `COc1ncccc1C1c2c(C(C)(C)C)n[nH]c2C(=O)N1c1ccc(-c2nccs2)cc1` (stereo not shown) [II-193], the IC50 turned out to be 195 nM.

In the case of `COc1ccccc1C1C(C(=O)c2cc[nH]c2)=C(O)C(=O)N1c1ccc(-c2csc(C)c2)cc1` (stereo not shown) [Compound I-553], the IC50 was 337 nM.

As for `COC(=O)c1cc(N2C(=O)c3[nH]nc(C(C)C)c3C2c2ccccc2OC)ccc1-c1ccsc1` (stereo not shown) [II-241], the IC50 turned out to be 213 nM.

Regarding `COCCOc1ccccc1C1C(C(=O)CC(C)C)=C(O)C(=O)N1c1ccc(-c2ccc(C)s2)cc1` (stereo not shown) [Compound I-304], the IC50 was determined as 21 nM.

Turning to `CNC(=O)COc1ccccc1C1c2c(C(C)(C)C)n[nH]c2C(=O)N1c1ccc(-c2ccon2)cc1` (stereo not shown) [II-077], the IC50 was found to be 237 nM.

For `COc1ccccc1C1c2c(C(C)(C)C)n[nH]c2C(=O)N1c1ccc(C(C)(C)C)cc1` (stereo not shown) [II-003], the IC50 is 140 nM.

With `COCc1ccccc1C1C(C(=O)C(C)C)=C(O)C(=O)N1c1ccc(-c2ccccc2)s1` (stereo not shown) [Compound I-283], the IC50 was 144 nM.

For `COc1ccc(-c2n[nH]c3c2C(c2ccccc2OC)N(CCc2ccco2)C3=O)cc1` (stereo not shown) [II-225], the IC50 was found to be 979 nM.

Turning to `CN(C)CCOc1ccccc1C1c2c(C(C)(C)C)n[nH]c2C(=O)N1c1ccc(-c2ccsc2)cc1` (stereo not shown) [II-031], the half-inhibitory concentration (IC50) was determined as 18 nM.

For the molecule `COc1ccccc1C1C(C(=O)C2CC2)=C(O)C(=O)N1c1ccc(-c2ccsc2)cc1` (stereo not shown) [Compound I-218], the IC50 stood at 73 nM.

On to `CC(C)Oc1ccccc1C1C(C(=O)C(C)C)=C(O)C(=O)N1c1ccc(-c2csnn2)cc1` (stereo not shown) [Compound I-533], for which the IC50 stood at 33 nM.

Regarding `CN(C)C(=O)COc1ccccc1C1c2c(C(C)(C)C)n[nH]c2C(=O)N1c1ccc(-c2ccsc2)cc1` (stereo not shown) [II-166], the IC50 was 7 nM.

As to `Cc1ccc(-c2ccc(N3C(=O)C(O)=C(C(=O)C(C)C)C3c3ccccc3C(=O)N(C)C)cc2)o1` (stereo not shown) [Compound I-397], the IC50 was determined as 122 nM.

Regarding `CC(C)C(=O)C1=C(O)C(=O)N(c2ccc(-c3ccon3)cc2)C1c1ccccc1OC(F)(F)F` (stereo not shown) [Compound I-297], the IC50 came to 220 nM.

Take `COc1cccc(OC)c1C1c2c(C(C)(C)C)n[nH]c2C(=O)N1c1ccc(-c2ccon2)cc1` (stereo not shown) [II-060]: the IC50 was determined as 538 nM.

Take `CC(C)(C)C(=O)C1=C(O)C(=O)N(c2ccc(-c3ccon3)cc2)C1c1cccc2c1OCO2` (stereo not shown) [Compound I-055]: the IC50 is 596 nM.

On to `Cc1noc(-c2ccc(N3C(=O)c4[nH]nc(C(C)(C)C)c4C3c3ccccc3OCCO)cc2)n1` (stereo not shown) [II-016], for which the IC50 amounted to 158 nM.

As for `COc1ccccc1C1C(C(=O)C(C)C)=C(O)C(=O)N1c1ccc(-c2ccsc2)c(C)c1` (stereo not shown) [Compound I-236], the IC50 was 431 nM.

As for `CC(C)(C)C(=O)C1=C(O)C(=O)N(c2ccc(-c3cc[nH]c3)cc2)C1c1ccccc1OCCO` (stereo not shown) [Compound I-154], the IC50 was 192 nM.

As for `COc1ccccc1C1C(C(=O)C(C)(C)C)=C(O)C(=O)N1c1ccc(-c2cscc2C)cc1` (stereo not shown) [Compound I-193], the IC50 stood at 994 nM.

Take `COCCOc1ncccc1[C@@H]1C(C(=O)C(C)C)=C(O)C(=O)N1c1ccc(-c2ccc(C)s2)cc1` [Compound I-472]: the IC50 was determined as 7 nM.

Regarding `COc1ccc(N2C(=O)c3[nH]nc(C(C)(C)C)c3C2c2ccccc2OC)cc1` (stereo not shown) [II-098], the IC50 is 761 nM.

Consider `CC(C)(C)c1n[nH]c2c1C(c1ccccc1OCC(N)=O)N(c1ccc(-c3ccsc3)cc1)C2=O` (stereo not shown) [II-169], for which the IC50 is 4 nM.

As to `Cc1ccc(-c2ccc(N3C(=O)C(O)=C(C(=O)CC(C)C)C3c3ccccc3OCCO)cc2)s1` (stereo not shown) [Compound I-328], the IC50 turned out to be 65 nM.

On to `CC(C)C(=O)C1=C(O)C(=O)N(c2ccc(-c3cccs3)cc2)C1c1cccnc1OCCO` (stereo not shown) [Compound I-229], for which the IC50 was 29 nM.

Turning to `CCOc1ccccc1C1C(C(=O)CC(C)C)=C(O)C(=O)N1c1ccc(-c2ccoc2)cc1` (stereo not shown) [Compound I-347], the IC50 is 47 nM.

`Cc1cc(-c2ccc(N3C(=O)C(O)=C(C(=O)C(C)C)C3c3cccnc3OCCCO)cc2)cs1` (stereo not shown) [Compound I-570]: the IC50 is 70 nM.

Consider `COCCOc1ccccc1C1C(C(=O)CC(C)C)=C(O)C(=O)N1c1ccc(-c2ccoc2)cc1` (stereo not shown) [Compound I-348], for which the IC50 came out at 55 nM.

Take `Cc1ccc(-c2ccc(N3C(=O)C(O)=C(C(=O)CC(C)C)C3c3cccnc3C(=O)N(C)C)cc2)s1` (stereo not shown) [Compound I-574]: the IC50 is 280 nM.

For `COCc1ccccc1C1C(C(=O)C(C)C)=C(O)C(=O)N1c1ccc2sc(C)nc2c1` (stereo not shown) [Compound I-385], the IC50 was 227 nM.

Usually IC50 stands for the concentration needed to halve the response being measured.

The values are drawn from patent US8575197B2, “Pyrolinone derivative and pharmaceutical composition comprising the same” (Shionogi & Co., Ltd., priority 2008, dated 2013).
